From patent publication US5155259A, “Aldose reductase inhibitor” (Toyo Jozo Kabushiki Kaisha, priority 1990, dated 1992)

How the values were obtained:
[1] = target: T1, aldose reductase, originating from the lens of cattle (Bos taurus, UniProt P16116); experiment: Enzyme reaction inhibiting activity (aldose reductase, NADPH / D,L-glyceraldehyde, absorbance at 340 nm); type: biochemical; settings: for inhibition at 0.1 µg: concentration of 0.1 γ, pH 6.0, 37° C.
T1 construct: originating from the lens of cattle, was employed after being subjected to a partial purification; from tissue; host or cells: lens of cattle, partially purified
Experimental: The preparation of aldose reductase and the determination of its enzyme reaction inhibiting activity were carried out pursuant to the procedures disclosed by Haymann et al. in Journal of Biological Chemistry, 240, 877 (1965).
The sample solution to be examined for inhibiting activity was prepared by dissolving an amount of a compound of formula (I) according to the present invention in a small amount of methanol and increasing the volume of the resulting methanol solution by diluting it with distilled water up to tenfold volume. As the enzyme, i.e. aldose reductase, originating from the lens of cattle, was employed after being subjected to a partial purification.
To 2.4 ml of 5×10^-5 M NADPH solution dissolved in a 2/15 M phosphate buffer solution (pH 6.0), 0.4 ml of the enzyme solution and 0.1 ml of the sample solution to be examined were added and the mixture was charged in a quartz cell in a photoelectric photometer and was subjected to preincubation at 37° C. for 4 mins. Then, 0.1 ml of a 0.015 M D,L-glyceraldehyde solution was added thereto for initiating the enzyme reaction and the decrease in the photoabsorbance at 340 nm was measured at 37° C. for 4 mins. The aldose reductase inhibiting activity calculated by [formula] in which A represents the enzyme reaction rate with addition of the inhibitor and B denotes the enzyme reaction rate without addition of the inhibitor.

[2] = test system: sorbitol accumulation in sciatic nerve; experiment: Activity for suppressing accumulation of sorbitol, tissue culture of sciatic nerve; type: cell-based, Wistar rats; settings: concentration of 1.0 γ; rat sciatic nerve cultured 20 hours with added glucose
Experimental: (§1) Lenses and sciatic nerves excised from 7 weeks-old male Wistar rats were washed twice with an aseptic buffer solution consisting of 0.3% trisaminomethane, 0.8% NaCl, 0.038% KCl, 0.025% Na2 HPO4.12H2 O, 0.1% glucose and 1.85 ml/1 of concentrated HCl.
(§2) The lenses and the sciatic nerves were then treated by a 30 mins. preculture in a culture medium prepared by adding 2 ml of 7.5% conc. aseptic NaHCO3 solution and 5.5 ml of aseptic calf fetus serum to 100 ml of an aseptic culture medium of 0.98% TC Medium 199 (supplied from the firm NISSUI) containing 0.01% of dihydrostreptomycin and 0.01% of benzyl-penicillin. Thereafter, the intrinsic culture was effected in a culture medium prepared by adding each sample solution to be examined and 0.09% of glucose to the above-mentioned culture medium and permitting culturing to proceed for 20 hours. The culturing was effected at 37° C. in an atmosphere composed of 95% air and 5% CO2.
(§3) After culturing, the cultured samples of lens and sciatic nerve were removed from the culture medium to filter paper and the weight of each of them was measured after the adherent culture solution had been blown off. Then, each of the cultured samples was homogenized with the addition of 1 ml of a cold 8% HClO4 solution and the homogenized mixture was subjected to centrifugation at 10,000 G for 10 mins., whereby a supernatant was obtained. The resulting precipitate was then homogenized again with addition thereto of 0.5 ml of cold 8% HClO4 solution and the homogenized mixture was again subjected to centrifugation in a similar way as above to obtain a further supernatant. This was combined with the previously obtained supernatant and the resulting solution was neutralized with 2 N KOH aq. solution and was diluted with distilled water to a volume of 5 ml. The precipitate formed by neutralization was separated by centrifugation at 3,000 rpm for 10 mins. and the resulting supernatant was employed as the sample for determining the sorbitol content.
(§4) The determination of the sorbitol content in the lens and in the sciatic nerve was carried out in accordance with the technique of Bergmeyer in "Methods of Enzymatic Analysis" edited by H.U. Bergmeyer, pp 1323-1326, Academic Press, New York, 1974 and in accordance with the technique proposed by Malaon et al. in "Diabetes" 29, 861-864 (1980).
(§5) To 0.5 ml of the sample solution for determination of sorbitol content obtained as above, 0.9 ml of 0.1 M glycine-KOH buffer solution (pH 9.4) containing 1 mM of NAD^+ and 0.1 ml of a solution of sorbitol dehydrogenase of 20 units/ml were added and the resulting mixture was subjected to incubation at 37° C. for 1 hour.
(§6) The content of sorbitol in each tissue was estimated by assuming the increment of the photoabsorbance at 340 nm to be proportional to the amount of NADH produced by the reaction for the lens and by detecting the fluorescence with an excitation wavelength of 366 nm and a fluorescence wavelength of 425 nm for the sciatic nerve.
(§7) The activity for suppressing accumulation of sorbitol, i.e. the aldose reductase inhibiting activity, was calculated from the determined sorbitol content by the calculation formula [formula] in which A denotes the content of sorbitol per unit weight of the tissue after cultivation with addition of the inhibitor, B denotes the sorbitol content per unit weight of the tissue after cultivation without addition of the inhibitor and C represents the sorbitol content per unit weight of the tissue after cultivation in the medium without addition of glucose and inhibitor.

[3] = test system: sorbitol accumulation in lens; experiment: Activity for suppressing accumulation of sorbitol, tissue culture of lens; type: cell-based, Wistar rats; settings: for Inhibition of Sorbite Accumulat. in Lens: concentration of 2.5 γ, rat lens cultured 20 hours with added glucose
Experimental: as §1, §2, §3, §4, §5, §6, §7

[4] = test system: STD-DDY mice; experiment: Acute toxicity, oral; type: in vivo; settings: orally 400 mg/20 ml/kg, dissolved with aqueous NaOH at pH 6.5-7.0, observed for 10 days
Experimental: Compounds of formula (I) according to the present invention, as given in the examples below or 2,2'-dimethoxy-5, 5'-bis(3-carboxypropyl) biphenyl, were suspended in distilled water and were dissolved completely by adding at least the equimolar amount of aqueous NaOH solution. […] No fatality was marked in any of the administered groups.

Row | Compound | inhibition at 0.1 µg [1] [%] | Inhibition of Sorbite Accum. in Sciatic N. [2] [%] | Inhibition of Sorbite Accumulat. in Lens [3] [%] | fatality (acute toxicity) [4] | aldose reductase inhibiting activity (in words) ([1]; tests according to 1) and 2), concentration not given) | activity for suppressing accumulation of sorbitol (in words) ([3]; tissue and concentration not stated)
1 | CCCCCOc1ccc(CCCC(=O)O)cc1-c1cc(CCCC(=O)O)ccc1OCCCCC [R=C5H11, n=3, 2,2'-dipentyloxy-5,5,'-bis(3-carboxypropyl) biphenyl] | 48 |  |  |  |  | 
2 | COc1ccc(CCCC(=O)O)cc1-c1cc(CCCC(=O)O)ccc1OC [R=CH3, n=3, 2,2'-dimethoxy-5,5'-bis (3-carboxypropyl) biphenyl] | 63 | 92 | 85 | No fatality |  | 
3 | COc1ccc(CCC(=O)O)cc1-c1cc(CCC(=O)O)ccc1OC [R=CH3, n=2, 2,2'-dimethoxy-5,5'-bis(2-carboxyethyl) biphenyl] | 44 | 85 | 76 |  |  | 
4 | 2,2'-dimethoxy-5, 5'-bis(3-carboxypropyl) biphenyl diester |  |  |  |  | did not exhibit any aldose reductase inhibiting activity | no activity for suppressing accumulation of sorbitol
5 | CCOc1ccc(CCC(=O)O)cc1-c1cc(CCC(=O)O)ccc1OCC [R=C2H5, n=2, 2,2'-diethoxy-5,5'-bis(2-carboxyethyl) biphenyl] | 43 | 69 | 56 |  |  | 
6 | CCOc1ccc(CCCC(=O)O)cc1-c1cc(CCCC(=O)O)ccc1OCC [R=C2H5, n=3, 2,2'-diethoxy-5,5'-bis(3-carboxypropyl) biphenyl] | 77 | 80 | 76 |  |  | 
7 | CCCOc1ccc(CCCC(=O)O)cc1-c1cc(CCCC(=O)O)ccc1OCCC [R=C3H7, n=3, 2,2'-dipropoxy-5,5'-bis(3-carboxypropyl) biphenyl] | 57 | 67 | 68 |  |  | 
8 | CCCOc1ccc(CCC(=O)O)cc1-c1cc(CCC(=O)O)ccc1OCCC [R=C3H7, n=2, 2,2'-dipropoxy-5,5'-bis(2-carboxyethyl) biphenyl] | 35 | 67 | 66 |  |  | 
9 | O=C(O)CCCc1ccc(OCC2CCCCC2)c(-c2cc(CCCC(=O)O)ccc2OCC2CCCCC2)c1 [2,2'-dicyclohexylmethoxy-5,5'-bis(3-carboxypropyl) biphenyl] | 45 |  | 57 |  |  | 
10 | O=C(O)CCc1ccc(OCC2CCCCC2)c(-c2cc(CCC(=O)O)ccc2OCC2CCCCC2)c1 [2,2'-dicyclohexylmethoxy-5,5'-bis(2-carboxyethyl) biphenyl] | 44 |  | 51 |  |  | 
